Reference: patent US8114410B2, “Composition and methods for the inhibition of membrane fusion by paramyxoviruses” (priority 2001, dated 2012)
pIC50: −log10 of the molar value.

Legend:
[1] = test system: HeV-mediated fusion (HeLa cells expressing HeV F and G, U373 target cells)
[2] = test system: NiV-mediated fusion (HeLa cells expressing NiV F and G, U373 target cells)
live NiV = conditions: 56 μM

| Compound | pIC50 [1] | Inhibition of HeV-mediated fusion (in words) [1] | pIC50 [2] | Inhibition of NiV-mediated fusion (in words) [2] | % Inhibition of focus formation (live NiV) [%] |
| --- | --- | --- | --- | --- | --- |
| CC[C@H](C)[C@H](NC(=O)[C@H](CCCCN)NC(=O)[C@H](CCC(N)=O)NC(=O)[C@H](C)NC(=O)[C@H](CCC(=O)O)NC(=O)[C@H](CCCCN)NC(=O)[C@@H](NC(=O)[C@H](Cc1ccc(O)cc1)NC(=O)[C@H](CC(=O)O)NC(=O)[C@H](CCCCN)NC(=O)[C@H](CO)NC(=O)[C@H](CCC(N)=O)NC(=O)[C@H](CCC(N)=O)NC(=O)[C@H](CC(C)C)NC(=O)[C@H](CO)NC(=O)[C@H](CCC(N)=O)NC(=O)[C@H](CC(N)=O)NC(=O)[C@H](CCSC)NC(=O)[C@H](CO)NC(=O)[C@H](CO)NC(=O)[C@@H](NC(=O)[C@H](CCC(N)=O)NC(=O)[C@H](CO)NC(=O)[C@H](CO)NC(=O)[C@@H](NC(=O)[C@H](CC(=O)O)NC(=O)[C@@H](NC(=O)[C@H](CCCCN)NC(=O)[C@H](CC(=O)O)NC(=O)[C@@H](NC(=O)[C@H](Cc1ccc(O)cc1)NC(=O)[C@@H](NC(=O)[C@@H]1CCCN1C(=O)[C@@H]1CCCN1)C(C)C)[C@@H](C)O)C(C)C)[C@@H](C)CC)[C@@H](C)CC)[C@@H](C)CC)C(=O)N[C@@H](CC(C)C)C(=O)N[C@@H](CC(=O)O)C(=O)N[C@H](C(=O)N[C@H](C(=O)N[C@@H](CC(N)=O)C(=O)N1CCC[C@H]1C(=O)N[C@@H](CO)C(=O)N[C@@H](CC(C)C)C(=O)O)C(C)C)[C@@H](C)O [HeV FC2] | 8.24 to 8.28 | completely inhibitory in the nM range | 8.24 to 8.28 | completely inhibitory in the nM range | – |
| KPYTQSDVSMISLQSQKSINSLPSQIKDYVQKTVILAEDNP [ScHeV FC2, reference compound] | – | no inhibitory effect | – | no inhibitory effect | – |
| CC[C@H](C)[C@H](NC(=O)[C@H](CCCCN)NC(=O)[C@H](CCC(N)=O)NC(=O)[C@H](C)NC(=O)[C@H](CCC(=O)O)NC(=O)[C@H](CCCCN)NC(=O)[C@@H](NC(=O)[C@H](Cc1ccc(O)cc1)NC(=O)[C@H](CC(=O)O)NC(=O)[C@H](CCCCN)NC(=O)[C@H](CO)NC(=O)[C@H](CCC(N)=O)NC(=O)[C@H](CCC(N)=O)NC(=O)[C@H](CC(C)C)NC(=O)[C@H](CO)NC(=O)[C@H](CCC(N)=O)NC(=O)[C@H](CC(N)=O)NC(=O)[C@H](CCSC)NC(=O)[C@H](CO)NC(=O)[C@H](CO)NC(=O)[C@@H](NC(=O)[C@H](CCC(N)=O)NC(=O)[C@H](CO)NC(=O)[C@H](CO)NC(=O)[C@@H](NC(=O)[C@H](CC(=O)O)NC(=O)[C@@H](NC(=O)[C@H](CCCCN)NC(=O)[C@H](CC(=O)O)NC(=O)[C@@H](NC(=O)[C@H](Cc1ccc(O)cc1)NC(=O)[C@@H](NC(=O)[C@@H]1CCCN1C(=O)[C@@H]1CCCN1)C(C)C)[C@@H](C)O)C(C)C)[C@@H](C)CC)[C@@H](C)CC)[C@@H](C)CC)C(=O)N[C@@H](CC(C)C)C(=O)N[C@@H](CC(=O)O)C(=O)N[C@H](C(=O)N[C@H](C(=O)N[C@@H](CC(N)=O)C(=O)N1CCC[C@H]1C(=O)N[C@@H](CO)C(=O)N[C@@H](CC(C)C)C(=O)O)C(C)C)[C@@H](C)O [FC1] | – | completely inhibit HeV-mediated fusion in the nM range | – | capable of inhibiting recombinant NiV-mediated fusion at slightly lower efficiencies | 91.8 |
